Our source for the TGI values is PubChem BioAssay (NCI).

Structures are written as SMILES.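 Five compound concentrations were applied to cells in 96-well plates for 48 hours; endpoints were derived by simple linear interpolation of the resulting dose-response curve. TGI: total growth inhibition.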

Assay in all cases: NCI anticancer screen, dose series, 48 h
Test [1] deals with 786-0 renal.
The test system of test [2] is SW-620 colon.
In test [3] the test system is SR leukemia.
Test [4] deals with A549 NSCLC.
The subject of test [5] is MOLT-4 leukemia.
For test [6], the system named is SK-MEL-2 melanoma.
In test [7] the test system is ACHN renal.
Test [8] deals with COLO 205 colon.
Test [9] concerns SK-OV-3 ovarian.
Test [10] deals with DU-145 prostate.
Test [11] deals with MDA-N.
Test [12] deals with CAKI-1 renal.
In test [13] the test system is HCT-116 colon.
The subject of test [14] is HCT-15 colon.
Test [15] relates to UACC-257 melanoma.
In test [16] the test system is HOP-62 NSCLC.
Test [17] concerns KM12 colon.
Test [18] relates to UO-31 renal.
In test [19] the test system is SF-268 CNS.
For test [20], the system named is SF-539 CNS.

For `O[C@H]1[C@@H]2OC[C@@H](O)[C@H](OCc3ccccc3)[C@@](COCc3ccccc3)(O2)[C@@H]1OCc1ccccc1`, the TGI was 45.4 µM in [1]; 33.1 µM in [2]; over 100 µM in [3]; 33.3 µM in test [4]; over 100 µM in [5]; 29.7 µM in test [6]. For the same compound, the TGI in [7] worked out at 30.4 µM; in test [8], 32.8 µM; in test [9], 36.6 µM; in test [10], 35.5 µM; in [11] it was 29.4 µM; in [12], 0.0898 µM. The TGI in test [13] came to 47.5 µM; in test [14], 30.9 µM; in test [15] it was 28.7 µM; in test [16], 34.4 µM; in [17], 35.6 µM; in test [18], 30.6 µM. Also, the TGI worked out at 42.8 µM in test [19] and 31 µM in test [20].

As for `CC(=O)Nc1ccc2c3c(cc(O)c2c1)N(C(=O)CCCCCC(=O)Nc1ccc2c4c(cc(O)c2c1)N(C(=O)OC(C)(C)C)CC4CCl)CC3CCl` (stereo not given), the TGI in test [1] is 10.1 µM; in test [2], over 100 µM; in test [3] it was 4.3 µM; in [4], over 55 µM; in test [5], over 32.6 µM; in test [6], 4.02 µM. In addition, the TGI in test [7] was over 100 µM; in test [8], 9.88 µM; in test [9] it was over 47.6 µM; in test [10], 3.12 µM; in test [11], 3.56 µM; in [12], over 100 µM. Also, the TGI is 14.4 µM in test [13]; over 100 µM in test [14]; over 28.6 µM in [15]; 12 µM in [16]; 13.6 µM in [17]; over 100 µM in test [18]. The TGI stood at 6.87 µM in test [19] and 13.1 µM in test [20].

For `Cc1ccc2nnc(NS(=O)(=O)c3cc(C)c(Cl)cc3S)n2n1`, the TGI in test [1], in test [2], in test [3], in [4], in test [5] and in test [6] was over 100 µM each time. For the same compound, the TGI in test [7], in test [8], in [9], in test [10], in test [11] and in [12] was over 100 µM throughout. In addition, the TGI in test [13], in test [14], in test [15], in [16], in [17] and in test [18] was over 100 µM each time. Further, the TGI in test [19] and in test [20] was over 100 µM in each case.

Take `Cc1c(C=C(C#N)C#N)c(=O)n(C)c(=O)n1C`: the TGI in test [1], in test [2], in [3], in test [4], in [5] and in test [6] was over 100 µM in each case. The TGI in [7], in test [8], in [9], in test [10], in test [11] and in test [12] was over 100 µM each time. The TGI in [13], in [14], in test [15], in [16], in [17] and in test [18] was over 100 µM each time. The TGI in test [19] and in test [20] was over 100 µM each time.

Take `C/C(CC(O)(C(F)(F)F)C(F)(F)F)=N/Nc1ccc([N+](=O)[O-])cc1[N+](=O)[O-]`: the TGI in [1] is over 10 µM; in [2], over 10 µM; in test [3], over 10 µM; in [4] it was over 10 µM; in [5], over 10 µM; in test [6], 6.11 µM. The TGI in test [7] was over 10 µM; in test [8] it was 3.85 µM; in [9] it was 6.3 µM; in test [10] it was over 10 µM; in [11] it was over 10 µM; in test [12], over 10 µM. The TGI is 4.56 µM in test [13]; over 10 µM in [14]; over 10 µM in test [15]; 9.15 µM in test [16]; over 10 µM in [17]; over 10 µM in [18]. For the same compound, the TGI in [19] and in [20] was over 10 µM each time.

For `O=C(CC(C(=O)c1cccs1)c1ccccc1)c1ccccc1O` (stereo not given), the TGI in test [1] is over 38.4 µM; in test [2] it was over 100 µM; in test [3] it was over 52.5 µM; in test [4] it was over 100 µM; in test [5] it was over 38.4 µM; in [6] it was over 100 µM. Also, the TGI was over 44.8 µM in [7]; over 100 µM in test [8]; over 100 µM in test [9]; over 100 µM in test [10]; over 100 µM in test [11]; over 67.3 µM in test [12]. The TGI in [13] is over 100 µM; in test [14] it was over 100 µM; in test [15] it was over 100 µM; in test [16], over 48.1 µM; in test [17], over 100 µM; in test [18], over 100 µM. Further, the TGI is over 35.1 µM in test [19] and over 100 µM in [20].

Turning to `C=[N+](CNC(=O)CNC(=O)C(Cc1ccccc1)NC(=O)OC(C)(C)C)C(=O)CNC(=O)C(Cc1ccccc1)NC(=O)OC(C)(C)C` (stereo not given), the TGI in [1], in [2], in test [3], in test [4], in test [5] and in test [6] was over 100 µM each time. The TGI in [7], in [8], in test [9], in [10], in [11] and in test [12] was over 100 µM throughout. The TGI in test [13], in test [14], in test [15], in [16], in [17] and in test [18] was over 100 µM each time. The TGI in [19] and in test [20] was over 100 µM each time.

As to `Cc1ccc(S(=O)(=O)N/N=C2\CC3C4CCC3C2C4)cc1` (stereo not given), the TGI in test [1], in [2], in test [3], in test [4], in [5] and in [6] was over 100 µM throughout. Besides, the TGI in test [7], in test [8], in test [9], in test [10], in test [11] and in test [12] was over 100 µM throughout. Besides, the TGI in [13], in test [14], in test [15], in test [16], in test [17] and in test [18] was over 100 µM each time. Further, the TGI in [19] and in [20] was over 100 µM throughout.
